According to paper PMC4978154, “Phase I metabolites of mephedrone display biological activity as substrates at monoamine transporters” (British Journal of Pharmacology, 2016):
Read-outs that look alike come from different tables or passages of the source.

Assays:
Assay type in all cases: cell-based
hSERT = biological target: T1, hSERT (Homo sapiens, UniProt P31645); assay: Transporter uptake inhibition in HEK293 cells expressing hSERT; details: [3H]-5-HT uptake; for IC50: mean (95% confidence interval)
T1 construct: yellow fluorescent protein (YFP); expressed in transfected cells
T1 sequence (P31645 whole entry): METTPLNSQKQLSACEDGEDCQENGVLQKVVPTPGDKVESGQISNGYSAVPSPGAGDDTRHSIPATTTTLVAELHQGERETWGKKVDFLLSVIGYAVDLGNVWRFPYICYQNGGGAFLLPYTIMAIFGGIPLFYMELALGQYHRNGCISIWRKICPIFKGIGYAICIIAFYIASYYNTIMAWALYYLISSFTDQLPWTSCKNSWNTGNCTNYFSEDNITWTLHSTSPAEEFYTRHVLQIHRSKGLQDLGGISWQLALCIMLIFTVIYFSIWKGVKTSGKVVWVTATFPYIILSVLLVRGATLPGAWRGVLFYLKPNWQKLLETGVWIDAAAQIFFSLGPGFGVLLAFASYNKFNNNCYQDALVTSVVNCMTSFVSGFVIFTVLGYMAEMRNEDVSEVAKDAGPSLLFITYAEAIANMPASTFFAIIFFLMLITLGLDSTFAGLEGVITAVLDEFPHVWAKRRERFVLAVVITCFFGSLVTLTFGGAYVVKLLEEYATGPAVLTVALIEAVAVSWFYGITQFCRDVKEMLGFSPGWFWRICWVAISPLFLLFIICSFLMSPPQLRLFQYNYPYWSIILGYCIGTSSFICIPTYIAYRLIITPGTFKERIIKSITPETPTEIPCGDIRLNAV
Experimental: (§1) The generation of HEK293 cells stably expressing the human isoforms of DAT (hDAT) and NET (hNET) was carried out as described previously (Scholze et al., 2002). For SERT, the human isoform (hSERT) was cloned in frame with yellow fluorescent protein (Schmid et al., 2001). The generation of a stable cell line was performed as described by Hilber and colleagues (Hilber et al., 2005). HEK293 cells were maintained in humidified atmosphere (5% CO2, 37°C) in DMEM, supplemented with 10% heat‐inactivated FBS and penicillin (100 u 100 mL^−1) and streptomycin (100 μg 100 mL^−1). Selection pressure was maintained by adding geneticin (50 μg·mL^−1) to the cell culture media.
Uptake experiments were conducted as described previously (Sitte et al., 2001) with minor modifications. In brief, HEK293 cells expressing hDAT, hNET or hSERT were seeded into poly‐D‐lysine (PDL) coated 96‐well plates at a density of 40 000 cells per well. The next day, DMEM was aspirated and replaced with Krebs HEPES buffer (KHB, 25 mM HEPES, 120 mM NaCl, 5 mM KCl, 1.2 mM CaCl2, and 1.2 mM MgSO4, 5 mM D‐glucose, pH adjusted to 7.3 with NaOH) (200 μL per well), and cells were pre‐incubated with various concentrations of mephedrone or its metabolites for 5 min (50 μL per well). Subsequently, 0.1 μM of [^3H]‐5‐HT or 0.02 μM of [^3H]‐MPP^+ were added, and uptake was terminated after 1 (hSERT) or 3 min (hDAT, hNET) by washing the cells with 200 μL of ice‐cold KHB. Cells were lysed with 1% SDS, and tritium uptake was determined by scintillation counting. Nonspecific uptake was determined in the presence of 10 μM paroxetine (hSERT) or 10 μM mazindol (hDAT and hNET).
(§2) Calculations were performed using Microsoft Excel® 2010 (Microsoft Corporation, Redmond, WA, USA) and GRAPHPAD PRISM 5.0. (GraphPad Software Inc., La Jolla, CA, USA). IC50 values for uptake inhibition and EC50 values for release were determined by nonlinear regression fits. Release data expressed as AUC were analysed by one‐way ANOVA followed by Bonferroni's multiple comparison test. Microdialysis and locomotor data were analysed by two‐way ANOVA (drug treatment × time) followed by Bonferroni's test. The effect of monensin treatment on basal efflux of tritiated substrate was analysed with the Mann–Whitney test. P values less than 0.05 (i.e. P < 0.05) were considered significant. The data and statistical analysis comply with the recommendations on experimental design and analysis in pharmacology (Curtis et al., 2015).

hDAT = biological target: T2, hDAT (Homo sapiens, UniProt Q01959); assay: Transporter release (superfusion) assay in HEK293 cells expressing hDAT; details: test drug 10 μM, monensin 10 μM; post hoc Bonferroni
T2 construct: expressed in transfected cells
T2 sequence (Q01959 whole entry, the tested form may be a part): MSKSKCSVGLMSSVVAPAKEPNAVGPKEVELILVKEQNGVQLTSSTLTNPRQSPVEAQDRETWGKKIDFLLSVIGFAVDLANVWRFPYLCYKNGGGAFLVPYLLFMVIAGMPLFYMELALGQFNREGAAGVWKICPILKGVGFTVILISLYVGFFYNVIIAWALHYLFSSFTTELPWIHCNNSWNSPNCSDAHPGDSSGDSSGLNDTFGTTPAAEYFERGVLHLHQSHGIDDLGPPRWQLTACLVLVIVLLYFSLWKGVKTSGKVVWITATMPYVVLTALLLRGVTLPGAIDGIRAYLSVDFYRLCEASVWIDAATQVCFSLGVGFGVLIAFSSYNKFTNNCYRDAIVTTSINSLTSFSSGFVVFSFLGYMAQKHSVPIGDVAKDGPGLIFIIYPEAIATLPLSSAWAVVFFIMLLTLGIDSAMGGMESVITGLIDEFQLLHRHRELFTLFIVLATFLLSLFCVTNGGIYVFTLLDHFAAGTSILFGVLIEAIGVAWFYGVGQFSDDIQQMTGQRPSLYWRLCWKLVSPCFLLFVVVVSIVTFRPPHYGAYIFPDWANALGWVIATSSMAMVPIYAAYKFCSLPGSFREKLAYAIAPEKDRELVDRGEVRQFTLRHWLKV
Experimental: as §1
(§3) Superfusion experiments were performed as described previously (Scholze et al., 2002). Briefly, HEK293 cells expressing the desired transporter were seeded at a density of 40 000 cells per well onto poly‐D‐lysine‐coated 5 mm glass cover slips in 96‐well plates 24 h prior to the experiment. Cells were preloaded with [^3H]‐MPP^+ (0.1 μM, hDAT and hNET) or [^3H]‐5‐HT (0.4 μM, hSERT) for 20 min at 37°C in a final volume of 100 μL per well. Subsequently, glass coverslips were transferred into small superfusion chambers (volume of 200 μL) and superfused with KHB at 25°C with a superfusion rate of 0.7 mL·min^−1 for 40 min to establish a stable basal efflux. After washout, the collection of 2‐min fractions was initiated. After the first three basal fractions, monensin (10 μM) or solvent was added for four fractions. Consequently, the cells were challenged with test drugs (10 μM) for five fractions in the presence or absence of monensin. Finally, the cells were lysed in 1% SDS to determine the total radioactivity. Radioactivity per fraction was assessed by a liquid scintillation counter and expressed as fractional release, that is, the percentage of released ^3H in relation to total ^3H present at the beginning of the fraction (Sitte et al., 2000). For analysis, release was expressed as AUC.
as §2
Data from uptake inhibition assays cannot distinguish whether test drugs act as non‐transported inhibitors or transportable substrates, which evoke release (Scholze et al., 2000; Sitte et al., 2000; Baumann et al., 2013). Therefore, mephedrone and its metabolites were tested in release assays to further explore their interaction with transporters. The release assays were performed with the same transporter‐expressing HEK293 cell lines described above and used a superfusion system (Sitte et al., 2000). As described previously, efflux of preloaded [^3H]‐MPP^+ or [^3H]‐5‐HT was monitored in the presence or absence of monensin (10 μM) (Scholze et al., 2000). […]

hNET = biological target: T3, hNET (Homo sapiens, UniProt P23975); assay: Transporter release (superfusion) assay in HEK293 cells expressing hNET; details: test drug 10 μM, monensin 10 μM; post hoc Bonferroni
T3 construct: expressed in transfected cells
T3 sequence (P23975 whole entry, the tested form may be a part): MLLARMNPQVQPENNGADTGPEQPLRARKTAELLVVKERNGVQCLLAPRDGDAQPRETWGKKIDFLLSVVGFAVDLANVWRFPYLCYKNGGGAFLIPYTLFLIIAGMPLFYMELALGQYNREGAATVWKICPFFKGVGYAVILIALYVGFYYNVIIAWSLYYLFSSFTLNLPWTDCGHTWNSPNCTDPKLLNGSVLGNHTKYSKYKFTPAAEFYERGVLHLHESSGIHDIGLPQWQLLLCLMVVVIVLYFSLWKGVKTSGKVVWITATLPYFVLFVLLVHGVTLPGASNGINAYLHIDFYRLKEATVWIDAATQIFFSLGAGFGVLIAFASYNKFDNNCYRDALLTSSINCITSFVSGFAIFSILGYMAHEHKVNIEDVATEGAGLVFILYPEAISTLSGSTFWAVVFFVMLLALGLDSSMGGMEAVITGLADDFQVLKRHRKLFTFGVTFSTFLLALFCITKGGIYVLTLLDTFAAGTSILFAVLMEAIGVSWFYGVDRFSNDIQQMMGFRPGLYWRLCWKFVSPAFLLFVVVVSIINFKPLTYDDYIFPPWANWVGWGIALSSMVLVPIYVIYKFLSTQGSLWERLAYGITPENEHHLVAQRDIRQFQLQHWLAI
Experimental: as §1
as §3, with “Consequently, the cells were challenged with test drugs (10 μM) for five fractions in the presence or absence of monensin.” left out
Calculations were performed using Microsoft Excel® 2010 (Microsoft Corporation, Redmond, WA, USA) and GRAPHPAD PRISM 5.0. […] IC50 values for uptake inhibition and EC50 values for release were determined by nonlinear regression fits. Release data expressed as AUC were analysed by one‐way ANOVA followed by Bonferroni's multiple comparison test. Microdialysis and locomotor data were analysed by two‐way ANOVA (drug treatment × time) followed by Bonferroni's test. The effect of monensin treatment on basal efflux of tritiated substrate was analysed with the Mann–Whitney test. […]
Data from uptake inhibition assays cannot distinguish whether test drugs act as non‐transported inhibitors or transportable substrates, which evoke release (Scholze et al., 2000; Sitte et al., 2000; Baumann et al., 2013). […] As described previously, efflux of preloaded [^3H]‐MPP^+ or [^3H]‐5‐HT was monitored in the presence or absence of monensin (10 μM) (Scholze et al., 2000). […]

[1] = IC50 on uptake mediated by hSERT

Row | SMILES | IC50 (hSERT; [1]) [µM] | efficacy of uptake inhibition at hSERT (hSERT) | enhancement by monensin of drug-evoked [3H]-MPP+ release at hDAT (AUC) (hDAT) | enhancement by monensin of drug-evoked [3H]-MPP+ release at hNET (AUC) (hNET) | IC50 (hSERT; read-out: IC50 on uptake mediated by hSERT) [µM]
1 | Cc1ccc(C(=O)C(C)N)cc1.Cl (stereo not drawn) [Nor‐mephedrone, 2‐amino‐1‐(p‐tolyl)propan‐1‐one hydrochloride] | 10.6 | fully efficacious inhibitors of uptake | significant | significant | –
2 | CNC(C)C(=O)c1ccc(C)cc1.Cl (stereo not drawn) [Mephedrone, 2‐Methylamino‐1‐(p‐tolyl)propan‐1‐one hydrochloride] | 7.83 | fully efficacious inhibitors of uptake | significant | significant | –
3 | CNC(C)C(=O)c1ccc(CO)cc1.Cl (stereo not drawn) [4‐OH‐mephedrone, 1‐(4‐(hydroxymethyl)phenyl)‐2‐(methylamino)propan‐1‐one hydrochloride] | – | fully efficacious inhibitors of uptake | significant | significant | 73.5
